We go through two compounds from patent publication US20210236657A1, “NERVE-SPECIFIC FLUOROPHORE FORMULATIONS FOR DIRECT AND SYSTEMIC ADMINISTRATION” (OREGON HEALTH & SCIENCE UNIVERSITY, priority 2018, published 2021).

Data set [1] can be described thus: Pharmacokinetics and biodistribution by LCMS/MS. The class given is in vivo, mice. Particulars: 2 mg/kg. On the procedure:
(§1) Drug release pharmacokinetics (PK) and biodistribution (BioD) studies were completed in mice systemically administered DSPE-PEG micelle, cyclodextrin or co-solvent formulated LGW01-08 for equivalent comparison, explained as follows. Formulated LGW1-08 was injected at a 2 mg/kg dose and blood collection was completed at the time points of 0, 0.5, 1, 2, 4, 8, and 24 hours post injection (n=5 mice per time point per formulation). Following blood collection via cardiac puncture, fluorescence and color images were acquired of the brain, lungs, liver, stomach, intestines, pancreas, spleen, kidney, bladder, brachial plexus, and sciatic nerves (n=3 mice per time point per formulation). Additionally, brain, lung, heart, liver, and kidney tissues were collected for liquid chromatography mass spectroscopy (LCMS/MS) analysis (n=5 mice per time point per formulation). The pharmacokinetic parameters were calculated from blood uptake kinetics data by non-compartmental analysis using Phoenix 64 (Certara, Princeton, N.J.), including the area under the concentration versus time curve from 0 to ∞ (AUC0-∞), plasma volume of distribution (Vd), clearance (CL) and half-life (t1/2).

The test system of data set [2] is brachial plexus and sciatic nerves. The data set can be described thus: Formulation nerve-specificity screening after systemic administration. The class given is in vivo, mice. Particulars: preclinical mouse models. The method, then: Ox4 and LGW01-08 solubilized in each formulation were screened in mice following systemic administration for nerve specificity. 200 nmol of LGW01-08 in 100 μL of the four prepared formulations were administered intravenously to n=3 mice 4 hours before nerve imaging. The four hour fluorophore to imaging window had been previously shown to provide the highest nerve to background tissue fluorescence for Oxazine 4 and several other nerve specific fluorophores. Gibbs-Strauss et al. Molecular imaging 10, 91-101 (2011); Park et al. Theranostics 4, 823-833 (2014); Barth & Gibbs. Theranostics 7, 573-593 (2017). Uninjected animals were used for all control images (n=3 mice or 12 nerve sites/formulation).
Intraoperative Fluorescence Imaging Systems. A custom-built small animal imaging system capable of real-time color and fluorescence imaging was used to acquire rodent in vivo images. The imaging system consisted of a QImaging EXi Blue monochrome camera (Surrey, British Columbia, CA) for fluorescence detection with a removable Bayer filter for collecting co-registered color and fluorescence images. […] For fluorescence excitation, the PhotoFluor II was filtered with a 620±30 nm bandpass excitation filter. Resulting fluorescence was collected with a 700±37.5 nm bandpass emission filter for image collection. […] Camera exposure times ranged from 10-2000 ms for fluorescence image collection. […]

For data set [3] the test system is unchanged. The data set can be described thus: Dose ranging pharmacodynamics imaging studies. The settings on record: two hours post injection. The class given is in vivo, mice. On the procedure: Following PK studies to assess the maximum nerve signal to background ratio (SBR) for LGW1-08 in each formulation (2 hours), dose response pharmacodynamic (PD) studies were completed in mice using a dose range up to the MTD: 0.1, 0.2, 0.3, 0.6, 1, 1.5, 2, 2.5, and 3 mg/kg (n=3 mice per dose per formulation).
Nerve specific contrast and tissue biodistribution intensities were assessed for all initial testing, PK, BioD, and PD studies using the intraoperative fluorescence imaging systems to collect images of the nerves and surrounding tissue as well as the additional tissues for biodistribution assessment. Additional unstained control animals were imaged to assess tissue autofluorescence.
Custom written MatLab code was used to analyze the tissue specific fluorescence where regions of interest (ROIs) were selected using the white light images. These ROIs were then analyzed on the co-registered matched fluorescence images permitting assessment of the mean tissue intensities and nerve signal to background ratios. Intensity measurements were divided by the exposure time to obtain normalized intensity per second measurements.

Data set [4] can be described thus: LGW01-08 solubility and loading in formulations (spectrophotometric quantification). The class given is physicochemical. The method, then: Based on the solubility of the nerve specific dye, liposomes sphingomyelin cholesterol (55:45), a FDA approved lipid mix was considered first for encapsulation of the agent as the lipid vesicles have both the lipid bilayer and hydrophilic core. Two common methods for preparation of liposomes are passive and pH gradient method. For passive loading method, both LGW01-08 and lipids were dissolved in a mixture of chloroform and methanol (70:30) and subjected to rotary evaporation under vacuum. […]
The next delivery platform which could increase the solubility of the nerve dye without compromising the nerve specificity was micelles. […] Commercially available (A-B-A block), PLURONIC® ethylene oxide-propylene oxide block co-polymer capable of self-assembly to form micelle was evaluated for encapsulating the nerve dye. […] The supernatant was passed through a 0.22μ filter and analyzed for nerve dye loading.
In order to achieve higher encapsulation, two more polymeric micelle platforms: Poly(ethylene glycol)(2 k)-block-poly(D,L-lactic acid) (1.8 k) (PEG-b-PLA) and Distearyl-phosphatidylethanolamine-PEG2000 (DSPE-PEG) were evaluated. […] Triplicate samples were prepared for quantification by diluting the complex 100-fold in 10% triton solution. […]
HP-β-CD complex was prepared by the solvent casting method. […] Triplicate samples were prepared for quantification by diluting the complex 100-fold in 10% triton solution. […]

In data set [5] the test system is brachial plexus and sciatic nerves. The data set can be described thus: Fluorescence imaging time course after systemic administration. Type of data set: in vivo, mice. The settings on record: 2 mg/kg, 24 hours after systemic administration, all formulations.
Text: as §1, with “Formulated LGW1-08 was injected at a 2 mg/kg dose and blood collection was completed at the time points of 0, 0.5, 1, 2, 4, 8, and 24 hours post injection (n=5 mice per time point per formulation).” left out, “(t1/2). Nerve specific contrast and tissue biodistribution intensities were assessed for all initial testing, PK, BioD, and PD studies using the intraoperative fluorescence imaging systems to collect images of the nerves and surrounding tissue as well as the additional tissues for biodistribution assessment. Additional unstained control animals were imaged to assess tissue autofluorescence. […]” for “(t1/2).”

The next data set relates to nerve. Particulars: Park et al. Theranostics 4, 823-833 (2014); cited from earlier work.
[6] abbreviates: DSPE-PEG micelle and cyclodextrin formulations.

Take `CCNc1cc2oc3cc(=[N+](CC)CC)ccc-3nc2cc1C` [LGW1-08, N-ethyl-N-(7-(ethylamino)-8-methyl-3H-phenoxazin-3-ylidene)ethanaminium]: the “blood concentrations over time” value in data set [1] (all formulations) is “decreased quickly”. For the same compound, the “LGW01-08 cleared from the tissue” value in data set [1] (by 4 hours post injection) is 90-99%. Also, in data set [2], the “nerve specificity following systemic administration” value is listed as “high nerve specificity”. Also, the “nerve SBRs across all doses tested” value in data set [3] (0.1-3 mg/kg) is “No significant difference”. For the same compound, in data set [3] (setting [6]), the “dose at which fluorescence intensity values were highest” value was 2.5 mg/kg and the “fluorescence intensity values at the 0.1 mg/kg dose” value was “decreased to autofluorescence levels”. In data set [3], the “dose up to which nerve to adipose background ratios increased” value came to 1.5 mg/kg and the “dose up to which nerve to muscle background ratios increased” value came out at 0.6 mg/kg. In data set [4], the solubility stood at 250 µg/mL. Besides, the “nerve fluorescence signal intensities” value in data set [5] was “close to baseline autofluorescence levels”.
As to Oxazine 4 perchlorate, the nerve specificity result with nerve is “high nerve-specificity”.
